Values quoted from earlier work, collected in publication PMC11791199 (Scientific Reports, 2025).
Starred links: 1 amine or outer side, 2 acyl side, 3 side chain; linkers in the order of their positions; H or OH if unused. Positions of bridges follow the written chain, without caps; N, C: chain ends. Non-standard residues stand in square brackets, D forms with d. Residues, ends and D or L forms follow the SMILES beside them. *: point of attachment. Phe(3R-OH) = O=C([C@@H](N[*:1])[C@H](O[*:3])c1ccccc1)[*:2]; NMeTrp(4-OMe) = CN[C@@H](Cc1c[nH]c2cccc(OC)c12)C(=O)O; NMeaIle = CC[C@@H](C)[C@H](NC)C(=O)O; NMe2Val = CC(C)[C@@H](C(=O)*)N(C)C; NMeT = CN[C@H](C(=O)O)[C@@H](C)O; NMeL = CN[C@@H](CC(C)C)C(=O)O; NMeV = CN[C@H](C(=O)O)C(C)C

Legend:
Conditions in all cases: cited from earlier work
ClpC1 = ClpC1 (Mycobacterium tuberculosis, UniProt P9WPC9)
tuberculosis = test system: tuberculosis
ClpC1P1P2 = ClpC1P1P2 (Mycobacterium tuberculosis, UniProt P9WPC9)
ClpC1 NTD = ClpC1 NTD (Mycobacterium tuberculosis, UniProt P9WPC9)
Chain of ClpC1 NTD (P9WPC9 2-144): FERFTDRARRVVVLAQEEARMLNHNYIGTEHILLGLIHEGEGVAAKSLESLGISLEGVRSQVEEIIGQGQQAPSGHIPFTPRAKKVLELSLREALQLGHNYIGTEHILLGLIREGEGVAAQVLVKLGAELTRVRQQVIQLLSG

Chain of ClpC1P1P2 (P9WPC9 whole entry): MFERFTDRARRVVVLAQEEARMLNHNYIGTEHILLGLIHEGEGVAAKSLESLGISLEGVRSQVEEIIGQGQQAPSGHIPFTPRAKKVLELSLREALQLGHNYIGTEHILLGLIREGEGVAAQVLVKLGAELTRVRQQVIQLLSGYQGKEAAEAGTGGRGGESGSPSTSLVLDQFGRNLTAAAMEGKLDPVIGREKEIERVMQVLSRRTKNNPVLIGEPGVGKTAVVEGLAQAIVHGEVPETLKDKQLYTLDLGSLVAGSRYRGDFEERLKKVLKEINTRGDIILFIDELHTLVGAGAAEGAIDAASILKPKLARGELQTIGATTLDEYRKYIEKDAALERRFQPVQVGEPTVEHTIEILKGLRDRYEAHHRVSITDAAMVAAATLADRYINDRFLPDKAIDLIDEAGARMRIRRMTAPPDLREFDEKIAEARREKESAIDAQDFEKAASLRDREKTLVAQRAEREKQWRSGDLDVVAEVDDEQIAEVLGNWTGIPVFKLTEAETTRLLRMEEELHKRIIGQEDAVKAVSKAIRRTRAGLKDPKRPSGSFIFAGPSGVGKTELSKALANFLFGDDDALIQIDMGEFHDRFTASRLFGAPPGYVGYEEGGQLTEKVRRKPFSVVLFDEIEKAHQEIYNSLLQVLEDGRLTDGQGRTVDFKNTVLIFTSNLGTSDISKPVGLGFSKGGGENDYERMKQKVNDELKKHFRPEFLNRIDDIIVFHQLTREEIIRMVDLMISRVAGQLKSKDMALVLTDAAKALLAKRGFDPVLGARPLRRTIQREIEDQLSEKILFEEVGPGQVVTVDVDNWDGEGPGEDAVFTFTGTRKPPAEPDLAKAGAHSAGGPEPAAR
Chain of ClpC1 (P9WPC9 whole entry): as above

Row | Molecule | effect on ATPase activity (ClpC1) | MIC value, times lower than that of rifampicin or isoniazid (tuberculosis) | effect on FITC-casein degradation (ClpC1P1P2) | affinity for ClpC1-NTD (ClpC1 NTD)
1 | CC[C@@H](C)[C@@H](C(=O)N[C@@H]1C(=O)N(C)[C@@H]([C@@H](C)O)C(=O)N[C@@H](C(C)C)C(=O)N(C)[C@@H](CC(C)C)C(=O)N[C@@H](C(C)C)C(=O)N(C)[C@@H](C(C)C)C(=O)N(C)[C@@H](Cc2c[nH]c3cccc(OC)c23)C(=O)N[C@@H](C(C)C)C(=O)N[C@@H]([C@H](O)c2ccccc2)C(=O)N[C@@H](C(C)C)C(=O)O[C@@H]1C)N(C)C(=O)[C@@H](NC(=O)[C@H](C(C)C)N(C)C)C(C)C [ecumicin] (NMe2Val-V[NMeaIle]T[NMeT]V[NMeL]V[NMeV][NMeTrp(4-OMe)]V[Phe(3R-OH)]V; ester 3-C) | strong activator | 50 times | inhibitor | 
2 | cyclomarin | very modest effects |  | very modest effects | nM affinity
